The text below walks through data of US9522920B2, “Bromodomain inhibitors and uses thereof” (Constellation Pharmaceuticals, Inc., priority 2010, dated 2016).

One experiment deals with T1, BRD4(BD1) (Homo sapiens, UniProt O60885).
T1 construct: His; made in house
As to the kind of experiment: BRD4 AlphaLisa binding assay (Alphascreen). As for the experimental part: Specifically, in a 384 well ProxiPlate BRD4(BD1) (30 nM final) was combined with peptide (200 nM final) in 40 mM HEPES (pH 7.0), 40 mM NaCl, 1 mM DTT, 0.01% (w/v) BSA, and 0.008% (w/v) Brij-35 either in the presence of DMSO (final 1.2% DMSO) or compound dilution series in DMSO. After 20 minute incubation at room temperature Alpha streptavidin donor beads and AlphaLisa anti-Flag acceptor beads were added to a final concentration of 10 ug/mL each. After three hours equilibration plates were read on an Envision instrument and IC50s calculated using a four parameter non-linear curve fit.

In a further experiment the test system is IL-6 secretion. In words: Cell-based IL-6 quantification assay (ELISA, Mesoscale) in LPS-stimulated THP-1 cells. To be noted: THP-1 cells, 16 h, read-out: IL6. Here is the method:
100,000 THP-1 cells were seeded in RPMI1640-10% FBS in 96-well plates. LPS (E. Coli Invitrogen) in RPMI-10% FBS at a final concentration of 4 μg/mL was added to the wells and the cells are then incubated in the presence of various concentrations of compounds for 16 h. Plates are spun ([…], 5 min), an aliquot of 25 uL supernatant is transferred in to an ELISA plate (Mesoscale technology, MSD) and the detection of IL-6 is performed using manufacturer's instructions. The amount of cells in each well is assessed using CellTiter-Glo® (Promega). The ratio of ELISA value/CellTiter-Glo value is used to calculate the percent of inhibition of IL-6 secretion.

For a further experiment, the system named is MYC mRNA. In words: cMyc RNA quantification assay (QuantiGene) in Raji cells. In kind it is cell-based. As to conditions: 4 h. Here is the method: MV4:11 (AML) or Raji (Burkitt's lymphoma) cells were seeded in a 96-well plate and incubated in the presence of various concentrations of compounds for 4 h. Relative mRNA levels were quantitated by using QuantiGene 2.0 assay (Affymetrix) according to the manufacturer's recommendation. Signals were detected by using an Envision plate reader (Perkin-Elmer). Biological duplicates were averaged and normalized to vehicle (DMSO) control to calculate percent MYC mRNA levels.

Where [1] appears, read: Table 6, BRD4(BD1) 30 nM, H4-tetraacetyl peptide 200 nM, read-out: BRD4 Alphascreen IC50.
Where [2] appears, read: Homo sapiens, THP-1, 16 h, Table 7, LPS 4 μg/mL, normalised to CellTiter-Glo.
[3] abbreviates: Homo sapiens, Table 7, Raji (Burkitt's lymphoma) cells.
Where [4] appears, read: Table 7, LPS 4 μg/mL, normalised to CellTiter-Glo.
The mark [5] stands for this setting: Table 7, Raji (Burkitt's lymphoma) cells.
Setting [6] is: Table 14, BRD4 AlphaLisa Binding Assay, read-out: Alpha screen.
Setting [7] is: Homo sapiens, THP-1, 16 h, Table 14, LPS.
Setting [8] is: Homo sapiens, Table 14, Raji cells.

Where two headings read alike, the source gives them in different places. Where only a bound is given, the exact number is not on record here.

`Cc1noc2c1-c1sc(C)c(C)c1C(c1ccc(N)nc1)=NC2CC(N)=O` (centres unmarked) [Compound 102]: the IC50 at BRD4(BD1) (setting [1]), in the experiment on IL-6 secretion (setting [2]) and with MYC mRNA (setting [3]) was < 500 nM in each case.

On to `CCNc1nccc2c1C(c1ccc(Cl)cc1)=NCc1onc(C)c1-2` [Compound 174, 6-(4-Chlorophenyl)-N-ethyl-1-methyl-4H-isoxazolo[5,4-c]pyrido[4,3-e]azepin-7-amine], for which the IC50 on BRD4(BD1) (setting [1]) was < 500 nM; with IL-6 secretion (setting [2]) it was < 500 nM; in the experiment with MYC mRNA (setting [3]) it was 500 to 1000 nM.

On to `CCCC1=NC(CC(N)=O)c2onc(C)c2-c2sc(C)c(C)c21` (centres unmarked) [Compound 124], for which the IC50 on BRD4(BD1) (setting [1]) is < 500 nM; in the experiment with IL-6 secretion (setting [2]), 500 to 1000 nM; in the experiment with MYC mRNA (setting [3]), > 1000 nM.

For the molecule `COc1ccc(C2=N[C@@H](CC(N)=O)c3onc(C)c3-c3cccc(C)c32)cc1` [Compound 135], the IC50 at BRD4(BD1) (setting [1]), in the experiment on IL-6 secretion (setting [4]) and in the experiment with MYC mRNA (setting [5]) was < 500 nM in each case.

As for `Cc1cccc2c1C(c1ccc(Cl)cn1)=N[C@@H](CC(N)=O)c1onc(C)c1-2` [Compound 133], the IC50 at BRD4(BD1) (setting [1]) was < 500 nM; in the experiment with IL-6 secretion (setting [4]), < 500 nM; with MYC mRNA (setting [5]), 500 to 1000 nM.

With `Cc1noc2c1-c1ccccc1C(c1ccc(F)cn1)=N[C@H]2CC(N)=O` [Compound 196], the IC50 at BRD4(BD1) (setting [6]) is > 1000 nM; with IL-6 secretion (setting [7]), 500 to 1000 nM; in the experiment with MYC mRNA (setting [8]) it was > 1000 nM.

Regarding `Cc1noc2c1-c1ccc(Cl)cc1C(c1ccc(C(F)(F)F)cc1)=N[C@H]2CC(=O)O` [Compound 200], the IC50 at BRD4(BD1) (setting [6]), in the experiment with IL-6 secretion (setting [7]) and with MYC mRNA (setting [8]) was > 1000 nM throughout.

For the molecule `COc1cccc(C2=N[C@@H](CC(N)=O)c3onc(C)c3-c3ccccc32)c1` [Compound 147], the results for the IC50 at BRD4(BD1) (setting [1]), in the experiment with IL-6 secretion (setting [4]) and with MYC mRNA (setting [5]) were < 500 nM, < 500 nM and 500 to 1000 nM, respectively.

`Cc1noc2c1-c1sc(C)c(C)c1C(c1cscn1)=N[C@H]2CC(N)=O` [Compound 198]: the results for the IC50 on BRD4(BD1) (setting [6]), in the experiment with IL-6 secretion (setting [7]) and in the experiment on MYC mRNA (setting [8]) were < 500 nM, < 500 nM and 500 to 1000 nM, respectively.

Consider `CCNC(=O)CC1N=C(c2ccc(C#N)cc2)c2c(sc(C)c2C)-c2c(C)noc21` (centres unmarked) [Compound 113], for which the IC50 at BRD4(BD1) (setting [1]), in the experiment on IL-6 secretion (setting [2]) and in the experiment on MYC mRNA (setting [3]) was < 500 nM each time.

For `CCNC(=O)C[C@@H]1N=C(c2ccc(C#N)cc2)c2cc(Cl)ccc2-c2c(C)noc21` [Compound 143], the IC50 on BRD4(BD1) (setting [1]) is < 500 nM; in the experiment on IL-6 secretion (setting [4]), < 500 nM; in the experiment on MYC mRNA (setting [5]) it was 500 to 1000 nM.

As for `CCOC(=O)NC1N=C(c2ccc(Cl)cc2)c2ccccc2-c2c1noc2C` (centres unmarked) [Compound 155, Ethyl (6-(4-chlorophenyl)-1-methyl-4H-benzo[c]isoxazolo[4,3-e]azepin-4-yl)carbamate], the IC50 at BRD4(BD1) (setting [1]) is < 500 nM; in the experiment on IL-6 secretion (setting [2]), 500 to 1000 nM; in the experiment with MYC mRNA (setting [3]) it was < 500 nM.

For `Cc1noc2c1-c1ccc(Cl)cc1C(c1ccc(Cl)cc1)=N[C@H]2CC(N)=O` [Compound 141], the figures for the IC50 on BRD4(BD1) (setting [1]), with IL-6 secretion (setting [4]) and in the experiment on MYC mRNA (setting [5]) were < 500 nM, < 500 nM and > 1000 nM, respectively.

As to `Cc1noc2c1-c1cccc(Cl)c1C(c1ccc(F)cc1)=N[C@H]2CC(N)=O` [Compound 138], the IC50 on BRD4(BD1) (setting [1]), in the experiment on IL-6 secretion (setting [4]) and in the experiment on MYC mRNA (setting [5]) was < 500 nM throughout.

For `Cc1noc2c1-c1ccccc1C(c1ccc(Cl)cc1)=N[C@H]2CC(=O)NC(C)(C)C` [Compound 205], the IC50 was < 500 nM at BRD4(BD1) (setting [6]), < 500 nM with IL-6 secretion (setting [7]) and > 1000 nM in the experiment with MYC mRNA (setting [8]).

With `Cc1noc2c1-c1ccnc(N(C)C)c1C(c1ccc(Cl)cc1)=NC2` [Compound 175, 6-(4-Chlorophenyl)-N,N,1-trimethyl-4H-isoxazolo[5,4-c]pyrido[4,3-e]azepin-7-amine], the IC50 on BRD4(BD1) (setting [1]) is < 500 nM; in the experiment with IL-6 secretion (setting [2]) it was 500 to 1000 nM; with MYC mRNA (setting [3]), > 1000 nM.

For `Cc1cccc2c1C(c1ccncc1)=N[C@@H](CC(N)=O)c1onc(C)c1-2` [Compound 131], the IC50 at BRD4(BD1) (setting [1]), in the experiment on IL-6 secretion (setting [4]) and with MYC mRNA (setting [5]) was < 500 nM throughout.

Take `Cc1noc2c1-c1sc(C)c(C)c1C(C1CCCCC1)=NC2CC(N)=O` (centres unmarked) [Compound 126]: the values for the IC50 on BRD4(BD1) (setting [1]), in the experiment on IL-6 secretion (setting [2]) and with MYC mRNA (setting [3]) were < 500 nM, < 500 nM and > 1000 nM, respectively.

In the case of `CCNC(=O)C[C@@H]1N=C(c2ccc(C#N)cc2)c2ccccc2-c2c(C)noc21` [Compound 149], the IC50 on BRD4(BD1) (setting [1]), with IL-6 secretion (setting [4]) and in the experiment on MYC mRNA (setting [5]) was < 500 nM throughout.

With `COc1ccc(C2=N[C@@H](CC(N)=O)c3onc(C)c3-c3ccccc32)cc1` [Compound 146], the IC50 on BRD4(BD1) (setting [1]), in the experiment with IL-6 secretion (setting [2]) and in the experiment on MYC mRNA (setting [3]) was < 500 nM each time.

Take `CC(=O)Nc1ccc(C2=NC(CC(N)=O)c3onc(C)c3-c3sc(C)c(C)c32)cc1` (centres unmarked) [Compound 118]: the IC50 at BRD4(BD1) (setting [1]), in the experiment with IL-6 secretion (setting [2]) and with MYC mRNA (setting [3]) was < 500 nM each time.

As for `Cc1noc2c1-c1cccc(Cl)c1C(c1ccc(C#N)cc1)=N[C@H]2CC(N)=O` [Compound 140], the IC50 at BRD4(BD1) (setting [1]), in the experiment with IL-6 secretion (setting [4]) and with MYC mRNA (setting [5]) was < 500 nM each time.

On to `Cc1noc2c1-c1sc(C)c(C)c1C(c1ccc(C#N)cc1)=NC2CC(N)=O` (centres unmarked) [Compound 115], for which the IC50 on BRD4(BD1) (setting [1]), with IL-6 secretion (setting [2]) and in the experiment on MYC mRNA (setting [3]) was < 500 nM each time.

Take `Cc1noc2c1-c1sc(C)c(C)c1C(c1ccccc1)=NC2CC(N)=O` (centres unmarked) [Compound 108]: the IC50 at BRD4(BD1) (setting [1]), in the experiment with IL-6 secretion (setting [2]) and with MYC mRNA (setting [3]) was < 500 nM in each case.

Take `Cc1noc2c1-c1sc(C)c(C)c1C(c1ccc(F)cc1)=NC2CC(N)=O` (centres unmarked) [Compound 109]: the IC50 at BRD4(BD1) (setting [1]), with IL-6 secretion (setting [2]) and in the experiment with MYC mRNA (setting [3]) was < 500 nM in each case.

On to `Cc1noc2c1-c1c[nH]c(=O)cc1C(c1ccc(Cl)cc1)=NC2` [Compound 266, 6-(4-Chlorophenyl)-1-methyl-4H-isoxazolo[5,4-c]pyrido[3,4-e]azepin-8(9H)-one], for which the IC50 at BRD4(BD1) (setting [6]) and with IL-6 secretion (setting [7]) was < 500 nM in each case.

As to `Cc1noc2c1-c1sc(C)c(C)c1C(C(C)c1ccccc1)=N[C@H]2CC(N)=O` (some centres unmarked) [Compound 195], the IC50 at BRD4(BD1) (setting [6]) was > 1000 nM; in the experiment on IL-6 secretion (Table 14, LPS), > 1000 nM.

Take `Cc1noc2c1-c1sc(C)c(C)c1C(Cc1ccccc1)=N[C@H]2CC(N)=O` [Compound 127, 2-((6S)-4-benzyl-2,3,9-trimethyl-6H-isoxazolo[5,4-c]thieno[2,3-e]azepin-6-yl)acetamide]: the IC50 on BRD4(BD1) (setting [1]) and with IL-6 secretion (setting [2]) was > 1000 nM throughout.

`Cc1noc2c1-c1sc(C)c(C)c1C(N1CCCN(C)CC1)=NC2CC(N)=O` (centres unmarked) [Compound 123]: the IC50 on BRD4(BD1) (setting [1]) and with IL-6 secretion (setting [2]) was > 1000 nM throughout.

For `Cc1noc2c1-c1ccccc1C(c1ccc(C#N)cc1)=NC2NC(=O)C(C)C` (centres unmarked) [compound 264], the IC50 on BRD4(BD1) (setting [6]) was > 1000 nM; with IL-6 secretion (Table 14, LPS), > 1000 nM.

Consider `Cc1noc2c1-c1sc(C)c(C)c1C(c1ccn(C)c(=O)c1)=NC2CC(N)=O` (centres unmarked) [Compound 119], for which the IC50 at BRD4(BD1) (setting [1]) is < 500 nM; in the experiment on IL-6 secretion (setting [2]) it was 500 to 1000 nM.

For the molecule `Cc1noc2c1-c1ccn(-c3ccc(C#N)cc3)c(=O)c1C(c1ccc(Cl)cc1)=NC2` [Compound 178, 4-(6-(4-Chlorophenyl)-1-methyl-7-oxo-4H-isoxazolo[5,4-c]pyrido[4,3-e]azepin-8(7H)-yl)benzonitrile], the IC50 on BRD4(BD1) (setting [1]) and with IL-6 secretion (setting [2]) was > 1000 nM each time.
